Where “and” joins values, the source holds several entries; their conditions need not be identical. Identical values can stand only once. Like-named read-outs stand apart in the source and are kept apart here.
Tests used:
hMAO-B [1] = molecular target: T1, hMAO-B (Homo sapiens, UniProt P27338); experiment: hMAO-B MAO-Glo luminescence assay; type: biochemical; design: purchased Sigma-Aldrich; host or cells: baculovirus infected insect cells; conditions: 10 μg/mL; MAO-Glo kit
T1 sequence (P27338 1-520): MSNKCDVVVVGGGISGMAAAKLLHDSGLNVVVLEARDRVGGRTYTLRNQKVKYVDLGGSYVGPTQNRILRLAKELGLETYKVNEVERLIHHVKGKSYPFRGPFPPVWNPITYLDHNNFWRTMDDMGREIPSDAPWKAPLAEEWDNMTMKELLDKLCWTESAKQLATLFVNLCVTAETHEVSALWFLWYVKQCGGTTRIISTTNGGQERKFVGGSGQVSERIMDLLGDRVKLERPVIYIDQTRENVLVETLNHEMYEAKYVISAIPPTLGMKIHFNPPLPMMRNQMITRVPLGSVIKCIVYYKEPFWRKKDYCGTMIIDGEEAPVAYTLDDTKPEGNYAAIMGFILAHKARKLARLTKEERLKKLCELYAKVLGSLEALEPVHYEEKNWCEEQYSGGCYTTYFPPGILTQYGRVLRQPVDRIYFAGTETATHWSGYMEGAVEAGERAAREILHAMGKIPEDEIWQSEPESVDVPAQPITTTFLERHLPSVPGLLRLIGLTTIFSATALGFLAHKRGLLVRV
Method: A slightly modified continuous spectrophotometric assay for measuring enzymatic H2O2 production was validated before the experiments. In this assay, the peroxidase chromogen reagent of 1 mM of vanillic acid and 500 μM 4-aminoantipyrine, and 4 U purpurogallin/mL of horseradish peroxidase (HRP) type-II in HBSS (pH 7.4) was prepared and validated with H2O2 standard curve. The linearity of reaction on the instrument was confirmed to reach up to 1.76 nmol per reaction volume with R^2 of 0.9999. Isozymes were diluted to 0.7 U/mL final concentration by 10 mM HEPES in HBSS (pH 7.4). Substrates final concentrations were optimized to be 0.5 and 3 mM tyramine HCl and benzylamine HCl for hMAO-A and hMAO-B reactions. The assay was run with and without different standard MAOIs with different selectivities (DEP, CLORG, pirlindole, and rasagiline) and monitored for few hours. Isozymes were found stable within the time of incubation. Stock solvents (ethanol or dimethyl sulfoxide) were kept ≤ 2% the final volume of all assays.
A buffer of 12.5 μL was used to make equivalent blank volumes of wells without enzyme. […] Reporter luciferase detects reagent of 50 μL was incubated with each reaction for 20-30 min to inhibit the enzyme and produce luminescence. Arbitrary light units (ALU) signal changes were measured by Synergy HTX Multi-Reader from Bio-Tek and converted to percent control change.

[2] = molecular target: T2, recombinant human MAO-B (hMAO-B) (Homo sapiens, UniProt P27338); experiment: hMAO-B continuous spectrophotometric assay (enzymatic H2O2 production); type: biochemical; conditions: for IC50: 3 mM benzylamine, 40 min preincubation at RT, ± SEM
T2 construct: purchased Sigma-Aldrich; host or cells: baculovirus infected insect cells
T2 sequence (P27338 1-520): T1 sequence (P27338 1-520)
Method: (§1) A slightly modified continuous spectrophotometric assay [25] for measuring enzymatic H2O2 production was validated before the experiments. In this assay, the peroxidase chromogen reagent of 1 mM of vanillic acid and 500 μM 4-aminoantipyrine, and 4 U purpurogallin/mL of horseradish peroxidase (HRP) type-II in HBSS (pH 7.4) was prepared and validated with H2O2 standard curve. […] Isozymes were diluted to 0.7 U/mL final concentration by 10 mM HEPES in HBSS (pH 7.4). Substrates final concentrations were optimized to be 0.5 and 3 mM tyramine HCl and benzylamine HCl for hMAO-A and hMAO-B reactions. […] Stock solvents (ethanol or dimethyl sulfoxide) were kept ≤ 2% the final volume of all assays.
(§2) The six benzopyrones of 5 × final concentrations between 0 to 400 μM and PCSEE from 0 to 250 μg/mL of at least ten data points were prepared in HBSS (pH 7.4). […] Freshly prepared volumes of 50 μL of 2.5 × substrate and peroxidase chromogen mix (1:1) were added. Absorbance was immediately read at 490 nm by the Bio-Tek μQuant Monochromatic Microplate Spectrophotometer for time zero. H2O2 production progression for each enzyme was measured every 20 min for the duration of the assay. First read measurements and the blanks background were subtracted from all absorbance values.

[3] = molecular target: T3, recombinant human MAO-A (hMAO-A) (Homo sapiens, UniProt P21397); experiment: hMAO-A continuous spectrophotometric assay (enzymatic H2O2 production); type: biochemical; conditions: for RSA (relative selectivity for hMAO-A): hMAO-B IC50/hMAO-A IC50
T3 construct: purchased Sigma-Aldrich; host or cells: baculovirus infected insect cells
T3 sequence (P21397 1-527): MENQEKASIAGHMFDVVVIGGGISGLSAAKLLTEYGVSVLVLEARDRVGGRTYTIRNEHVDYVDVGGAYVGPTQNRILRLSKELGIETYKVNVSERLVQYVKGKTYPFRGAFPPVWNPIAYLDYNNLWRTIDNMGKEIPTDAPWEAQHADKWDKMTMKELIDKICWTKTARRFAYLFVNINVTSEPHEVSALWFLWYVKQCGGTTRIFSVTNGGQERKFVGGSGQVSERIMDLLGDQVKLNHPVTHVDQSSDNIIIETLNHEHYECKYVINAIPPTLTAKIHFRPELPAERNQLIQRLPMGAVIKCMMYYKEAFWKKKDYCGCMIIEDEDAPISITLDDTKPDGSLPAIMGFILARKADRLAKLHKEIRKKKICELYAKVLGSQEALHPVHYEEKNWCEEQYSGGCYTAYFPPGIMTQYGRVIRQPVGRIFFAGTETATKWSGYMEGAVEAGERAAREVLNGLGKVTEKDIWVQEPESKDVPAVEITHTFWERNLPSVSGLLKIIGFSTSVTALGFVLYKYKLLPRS
Method: as §1, §2

hMAO-B [4] = molecular target: T1, hMAO-B; experiment: Michaelis-Menten kinetics of hMAO-B; conditions: mixed enzyme inhibition model, GraphPad Prism; ± SEM
hMAO-B [5] = molecular target: T1, hMAO-B; experiment: hMAO-B recovery after dilution (reversibility); type: biochemical; design: purchased Sigma-Aldrich; host or cells: baculovirus infected insect cells
[6] = H2O2 scavenging activity assay; conditions: 15 μM H2O2; PCSEE and ascorbic acid 62.5, 125, 250 μg/mL; BIO-A 6.25, 12.5, 25 μg/mL
Method: The H2O2 scavenging activity of PCSEE and BIO-A at their highest used MAO inhibitory concentrations was investigated and compared to the standard scavenger L-ascorbic acid. […] Buffer substituted the H2O2 (n = 4) to make blank wells. Immediately, peroxidase chromogen-containing vanillic acid, 4-aminoantipyrine, and HRP type-II were prepared as in the MAO spectrophotometric assay and added as 25 μL per well. The developing color at 490 nm was optimally read within 15 min at RT using Bio-Tek Synergy HTX Multi-Reader absorbance.

hMAO-A [7] = molecular target: T4, hMAO-A (Homo sapiens, UniProt P21397); experiment: hMAO-A recovery after dilution (reversibility); type: biochemical
T4 construct: purchased Sigma-Aldrich; host or cells: baculovirus infected insect cells
T4 sequence (P21397 1-527): T3 sequence (P21397 1-527)

hMAO-A [8] = molecular target: T4, hMAO-A; experiment: hMAO-A MAO-Glo luminescence assay; type: biochemical; conditions: 10 μg/mL; MAO-Glo kit
[9] = spectrophotometric assay, 0.5 mM tyramine, 40 min preincubation at RT, ± SEM, read-out: hMAO-A IC50
[10] = 0.1 × IC50 after 100-fold dilution (diluted)
[11] = 1 × IC50 after 100-fold dilution (diluted)
[12] = recovery after dilution, monitored with time

SMILES: CC(C)=CCc1c(O)cc2c(c1O)C(=O)C[C@@H](c1ccc(O)cc1)O2 [6-PN, 6-prenylnaringenin]
- relative effectiveness between isozymes, luminescence assay (hMAO-B [1]): more effective against hMAO-B
- RSB (relative selectivity for hMAO-B) ([2]; hMAO-A IC50/hMAO-B IC50): 3.0
- IC50 ([2]; spectrophotometric assay): 17.9 ± 1.84 µM
- IC50 [3, 9]: 54.53 ± 0.31 µM

SMILES: COc1ccc(-c2coc3cc(O)cc(O)c3c2=O)cc1 [BIO-A, 5,7-dihydroxy-4'-methoxyisoflavone]
- hMAO-B inhibition model alpha (hMAO-B [4]): > 1
- % hMAO-B H2O2 production control (hMAO-B [5]; [10]): 80%
- % hMAO-B H2O2 production control (hMAO-B [5]; 1 × IC50, undiluted): 36%
- % hMAO-B H2O2 production control (hMAO-B [5]; [11]): 51% and ~ 50%
- reversibility of hMAO-B inhibition (hMAO-B [5]; [12]): reversible inhibitor
- H2O2 scavenging activity [6]: did not show any scavenging activities
- % hMAO-A H2O2 production control (hMAO-A [7]; [10]): 90%
- % hMAO-A H2O2 production control (hMAO-A [7]; 1 × IC50, undiluted): 44.5%
- % hMAO-A H2O2 production control (hMAO-A [7]; [11]): 52% and ~ 50%
- reversibility of hMAO-A inhibition (hMAO-A [7]; [12]): reversible inhibitor

SMILES: C#CCN(C)[C@H](C)Cc1ccccc1 [DEP, selegiline, reference compound]
- % hMAO-A H2O2 production control (hMAO-A [7]; [10]): 7%

SMILES: O=c1ccc2ccc3occc3c2o1 [IPS, isopsoralen]
- IC50 ([2]; spectrophotometric assay): 51 ± 0.24 µM
- relative effectiveness between isozymes, luminescence assay (hMAO-A [8]): more effective against hMAO-A
- IC50 [3]: 20.6 ± 2.45 µM
- RSA (relative selectivity for hMAO-A) [3]: 2.5

SMILES: CC(C)=CCc1cc(-c2coc3cc(O)ccc3c2=O)ccc1O [NBI, neobavaisoflavone]
- IC50 ([2]; spectrophotometric assay): 77.3 ± 10.6 µM
- relative effectiveness between isozymes, luminescence assay (hMAO-A [8]): more effective against hMAO-A
- RSA (relative selectivity for hMAO-A) [3]: 1.2
- IC50 [3, 9]: 66.5 ± 5.66 µM

SMILES: O=c1ccc2cc3ccoc3cc2o1 [PS, psoralen]
- IC50 ([2]; spectrophotometric assay): 175 ± 50.9 µM
- relative effectiveness between isozymes, luminescence assay (hMAO-A [8]): more effective against hMAO-A
- RSA (relative selectivity for hMAO-A) [3]: 2.0
- IC50 [3, 9]: 89 ± 5.74 µM

SMILES: CC(C)=CCc1cc2c(cc1O)oc(=O)c1c3ccc(O)cc3oc21 [PSD, psoralidin]
- hMAO-B inhibition (in words) ([2]; spectrophotometric assay, up to 400 μM, p < 0.001): partial inhibition
- hMAO-A inhibition (in words) ([3]; spectrophotometric assay, up to 400 μM): no detectable inhibition

SMILES: O=C1O[C@H]([C@@H](O)CO)C(O)=C1O [ascorbic acid, L-ascorbic acid, reference compound]
- H2O2 scavenging activity [6]: complete scavenging activity

Source: publication PMC5223566, “The Benzopyrone Biochanin-A as a reversible, competitive, and selective monoamine oxidase B inhibitor” (BMC Complementary and Alternative Medicine, 2017)
